Test results from patent publication US11534493B2, “Pharmaceutical compositions of roflumilast in aqueous blends of water-miscible, pharmaceutically acceptable solvents” (ARCUTIS, INC., priority 2017, dated 2022).

Key:
[1] = aqueous solubility of roflumilast reported in WO95/01338; type: physicochemical; settings: cited 0.53 mg/l (21° C.) value converted to w/w %
Excerpt: Roflumilast and its synthesis were described in U.S. Pat. No. 5,712,298 (the “'298 patent”), incorporated herein by reference.* It has long been recognized that pharmaceutical compounds having phosphodiesterase (PDE)-inhibiting properties, such as roflumilast, are useful for treating psoriasis and atopic dermatitis ('298 patent, col 11 lines 52-61) and other chronic inflammatory and allergen-induced dermatoses. For treatment of such dermatoses, roflumilast emulsions, suspensions, gels or solutions for topical application have been described ('298 patent, col 12, lines 37-64). […] This low aqueous solubility has been problematic for the development of parenteral preparations and topical emulsions, suspensions, gels or solutions containing water. In U.S. Pat. No. 9,205,044 (incorporated herein by reference), the poor water solubility of roflumilast was overcome by using an alkoxylated fat, specifically polyoxyethylated 12-hydroxystearic acid, as a co-solvent for parenteral administration.

[2] = Description: Roflumilast (Batch A14367P from Interquim S.A.), 0.0205 grams, was weighed into a liquid scintillation vial. DEGEE (Transcutol P, lot 146063, Gattefosse) was added dropwise with mixing to the vial containing roflumilast. After mixing each addition of DEGEE, the tightly capped vial was returned to a water bath set at 25° C.
0.0111 grams of roflumilast (Batch A14367P from Interquim S.A.) was weighed into a liquid scintillation vial. An equimolar blend of DEGEE (Transcutol P, lot 146063, Gattefosse) and distilled water was prepared and added dropwise with mixing to the vial containing roflumilast. An equimolar blend is 88.3% DEGEE and 11.7% water on a weight/weight percent basis. After mixing each addition of equimolar DEGEE:Water, the tightly capped vial was returned to a water bath set at 25° C.

[3] = remark: listed apart in the source
Description: Roflumilast (Batch A14367P from Interquim S.A.), 0.0061 grams, was weighed into a liquid scintillation vial. PG (propylene glycol, Spectrum Chemical lot IEC0004) was added dropwise with mixing to the vial containing roflumilast. After mixing each addition of PG, the tightly capped vial was returned to a water bath set at 25° C.
2.3200 grams of an equimolar blend of PG (Spectrum Chemical lot IEC0004) and distilled water was prepared and added to a scintillation vial containing 0.0012 grams of roflumilast (Batch A14367P from Interquim S.A.). […] An equimolar blend is 80.7% PG and 19.3% water on a weight/weight percent basis.

O=C(Nc1c(Cl)cncc1Cl)c1ccc(OC(F)F)c(OCC2CC2)c1 [roflumilast, N-(3,5-dichloropyrid-4-yl)-3-cyclopropylmethoxy-4-difluoromethoxybenzamid-e]
saturation solubility of roflumilast in water [1]: 0.000053 w/w % | calculated ideal solubility in equimolar DEGEE:Water [2]: 0.019 w/w % | observed saturation solubility greater than calculated ideal solubility in equimolar DEGEE:Water [2]: 232 fold | observed saturation solubility in DEGEE [2]: 7.1 w/w % | observed saturation solubility in equimolar DEGEE:Water [2]: 4.4 w/w % | calculated ideal solubility in equimolar PG:Water [3]: 0.0040 w/w % | observed saturation solubility greater than calculated ideal solubility in equimolar PG:Water [3]: 15 fold | observed saturation solubility in PG [3]: 0.3 w/w % | observed saturation solubility in equimolar PG:Water [3]: 0.06 w/w %
